From patent publication US8765779B2, “Tricyclic derivatives and their pharmaceutical use and compositions” (Cephalon, Inc., priority 2009, dated 2014)

Target: T1, human 5-HT6 receptor (Homo sapiens, UniProt P50406)
T1 construct: host or cells: CHO-K1 cells, stably transfected; membranes prepared in house
Assay: Human 5-HT6 Receptor Binding Assay ([3H]LSD displacement, scintillation beads)
Conditions: membranes of CHO-K1 cells with recombinant human 5-HT6, 4 nM [3H]LSD; Table 1, class symbols; read-out: h5-HT6 (Ki)

T1 sequence (P50406 whole entry): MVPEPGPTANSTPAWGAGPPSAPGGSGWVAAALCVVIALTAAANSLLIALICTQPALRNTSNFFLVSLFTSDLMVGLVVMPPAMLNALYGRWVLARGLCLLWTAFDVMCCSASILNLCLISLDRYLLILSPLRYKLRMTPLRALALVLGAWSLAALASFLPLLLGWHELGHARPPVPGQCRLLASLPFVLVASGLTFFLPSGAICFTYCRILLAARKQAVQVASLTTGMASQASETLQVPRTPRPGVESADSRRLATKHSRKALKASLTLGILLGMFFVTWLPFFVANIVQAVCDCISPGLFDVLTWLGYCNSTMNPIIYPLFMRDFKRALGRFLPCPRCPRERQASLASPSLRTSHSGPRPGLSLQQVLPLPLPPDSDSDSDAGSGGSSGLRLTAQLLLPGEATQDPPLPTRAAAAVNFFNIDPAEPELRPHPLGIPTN

| Molecule | Ki [nM] |
| --- | --- |
| 1,2,3,4,4a,9a-hexahydro[1]benzofuro[2,3-c]pyridin-7-yl naphthalene-2-sulfonate [Example 660] | < 500 |
| COc1ccc(S(=O)(=O)Oc2ccc3c(c2)OC2CNCCC32)cc1 (centres unmarked) [Example 650] | < 500 |
| [O-][S+](c1ccc2c(c1)OC1CNCCC21)c1cccnc1F (centres unmarked) [Example 383] | > 1000 |
| CC12CCNCC1Oc1cc(S(=O)(=O)c3cncc(Cl)c3)ccc12 (centres unmarked) [Example 430] | < 500 |
| COc1cc(OC)cc(S(=O)(=O)c2ccc3c(c2)OC2CNCCC32C)c1 (centres unmarked) [Example 487] | < 500 |
| CC(C)C(=O)NCC1(C)NCCc2c1oc1cc(S(=O)(=O)c3cccc(F)c3)ccc21 (centres unmarked) [Example 491, N-[7-(3-Fluoro-benzenesulfonyl)-1-methyl-1,2,3,4-tetrahydro-benzofuro[2,3-c]pyridin-1-ylmethyl]-isobutyramide] | < 500 |
| CC12CCNCC1Oc1ccc(OS(=O)(=O)c3csc4ccccc34)cc12 (centres unmarked) [Example 772] | < 500 |
| CC12CCNCC1Oc1cc(S(=O)(=O)c3ncccn3)ccc12 (racemic) [Example 9, 4a-methyl-7-(pyrimidin-2-ylsulfonyl)-1,2,3,4,4a,9a-hexahydro[1]benzofuro[2,3-c]pyridine] | > 1000 |
| CC12CCNCC1Oc1ccc(OS(=O)(=O)c3ccccc3Cl)cc12 (centres unmarked) [Example 763] | > 1000 |
| [O-][S+](c1ccc(Cl)c(C(F)(F)F)c1)c1ccc2c3c(oc2c1)CNCC3 (centres unmarked) [Example 209] | < 500 |
| O=S(=O)(c1ccccc1)c1ccc2c3c([nH]c2c1)C1(CCOC1)NCC3 (stereo not drawn) [Example 546, 7-(Phenylsulfonyl)-2,3,4,4′,5′,9-hexahydrospiro[beta-carboline-1,3′-furan]trifluoroacetate] | < 500 |
| CC(C)c1ccc(S(=O)(=O)Oc2ccc3c(c2)OC2CNCCC32)cc1 (centres unmarked) [Example 657] | < 500 |
| O=S(=O)(c1cccc(OC(F)(F)F)c1)c1ccc2c(c1)OC1CNCCC21 (centres unmarked) [Example 166, 7-{[3-(trifluoromethoxy)phenyl]sulfo-nyl}-1,2,3,4,4a,9a-hexahydro[1]benzofuro[2,3-c]pyridine] | < 500 |
| Cc1ccnc(S(=O)(=O)c2ccc3c(c2)OC2CNCCC32C)n1 (racemic) [Example 7, 4a-methyl-7-[(4-methylpyrimidin-2-yl)sulfonyl]-1,2,3,4,4a,9a-hexahydro[1]benzofuro[2,3-c]pyridine] | > 1000 |
| O=S(=O)(c1cncc(C(F)(F)F)c1)c1ccc2c(c1)OC1CNCCC21 (centres unmarked) [Example 459] | > 1000 |
| O=S(=O)(c1ccc2c(c1)C1CCNCC1O2)N1CCc2ccccc21 (centres unmarked) [Example 838] | 500 to 1000 |
| CC12CCNCC1Oc1ccc(OS(=O)(=O)Cc3ccccc3Cl)cc12 (centres unmarked) [Example 784] | < 500 |
| COc1cccc(S(=O)(=O)c2ccc3oc4c(c3c2)CCNC4)c1 [Example 246] | < 500 |
| O=S(=O)(c1ccc2c(c1)OC1CNCCC21)c1cccc(F)c1F (centres unmarked) [Example 411] | < 500 |
| CC12CCNCC1Oc1ccc(OS(=O)(=O)c3cc4ccccc4o3)cc12 (centres unmarked) [Example 765] | 500 to 1000 |

| Molecule | Ki [nM] |
| --- | --- |
| O=S(=O)(c1cccc(Cl)c1)c1ccc2c3c(oc2c1)C1CCCCN1CC3 (centres unmarked) [Example 620] | < 500 |
| CC12CCNCC1Oc1ccc(OS(=O)(=O)Cc3ccc(F)cc3F)cc12 (centres unmarked) [Example 787] | > 1000 |
| O=S(=O)(Cc1ccccc1)Oc1ccc2c(c1)C1CCNCC1O2 (centres unmarked) [Example 697, 1,2,3,4,4a,9a-hexahydro[1]benzofuro[2,3-c]pyridin-6-yl phenylmethanesulfonate] | > 1000 |
| Cc1ccc(NS(=O)(=O)c2ccc3c(c2)C2CCNCC2O3)cc1F (centres unmarked) [Example 851] | > 1000 |
| O=S(=O)(c1ccc2c(c1)OC1CNCCC21)c1cccnc1C(F)(F)F (centres unmarked) [Example 410] | 500 to 1000 |
| CCN1CCC2(C)c3cc(OS(=O)(=O)Cc4ccccc4)ccc3OC2C1 (centres unmarked) [Example 810, 2-Ethyl-4a-methyl-1,2,3,4,4a,9a-hexahydro[1]benzofuro[2,3-c]pyridin-6-yl phenylmethanesulfonate] | > 1000 |
| O=S(=O)(c1ccccc1)c1ccc2c3c(oc2c1)C(C(F)F)NCC3 (centres unmarked) [Example 523] | < 500 |
| O=S(=O)(c1cccc(C(F)(F)F)c1)c1ccc2c3c(oc2c1)CNCC3 [Example 192] | < 500 |
| O=S(=O)(c1ccccc1)c1ccc2oc3c(c2c1)CCNC3 [Example 348] | < 500 |
| CCCCC1NCCc2c1oc1cc(S(=O)(=O)c3cccc(Cl)c3)ccc21 (centres unmarked) [Example 499] | < 500 |
| N#Cc1ccccc1COc1cccc(S(=O)(=O)c2ccc3c(c2)OC2CNCCC32)c1 (centres unmarked) [Example 550] | 500 to 1000 |
| O=S(=O)(c1ccc2ccccc2c1)c1ccc2oc3c(c2c1)CCNC3 [Example 251] | < 500 |
| O=S(=O)(Oc1ccc2c(c1)OC1CNCCC21)c1csc(C(F)(F)F)c1-c1ccccc1 (centres unmarked) [Example 686] | < 500 |
| Cc1cccc(S(=O)(=O)Oc2ccc3c(c2)OC2CNCCC32)c1 (centres unmarked) [Example 641] | < 500 |
| O=S(=O)(c1cc[n+]([O-])cc1)c1ccc2c(c1)OC1CNCCC21 (centres unmarked) [Example 329] | > 1000 |
| O=S(=O)(c1cncc(Cl)c1)c1ccc2c3c(oc2c1)CNCC3 [Example 437] | < 500 |
| O=S(=O)(Oc1ccc2c(c1)OC1CNCCC21)c1ccc(-c2ccccc2)cc1 (centres unmarked) [Example 681] | < 500 |
| CC12CCNCC1Oc1cc(S(=O)(=O)c3cc(F)cc(F)c3)ccc12 (centres unmarked) [Example 359] | < 500 |
| O=S(=O)(c1ccc(Oc2ccccc2)cc1)c1ccc2c(c1)OC1CNCCC21 (centres unmarked) [Example 116] | < 500 |

More lines, now with the values ahead:

| Ki [nM] | Molecule |
| --- | --- |
| < 500 | O=S(=O)(c1cccc(OCC2CCCO2)c1)c1ccc2c(c1)OC1CNCCC21 (centres unmarked) [Example 577] |
| > 1000 | O=S(=O)(CC1CCCCC1)Oc1ccc2c(c1)OC1CNCCC21 (centres unmarked) [Example 690] |
| > 1000 | Cc1ccc(S(=O)(=O)c2ccc3c(c2)C2CCNCC2O3)cc1 (centres unmarked) [Example 174] |
| < 500 | Cc1cccc(S(=O)(=O)c2ccc3c4c(oc3c2)CNCC4)n1 [Example 343, 7-[(6-methylpyridin-2-yl)sulfonyl]-1,2,3,4-tetrahydro[1]benzofuro[2,3-c]pyridine] |
| < 500 | COc1cc(OC(C)C)cc(S(=O)(=O)c2ccc3c(c2)OC2CNCCC32)c1 (centres unmarked) [Example 77] |
| > 1000 | O=S(=O)(Cc1ccccc1)Nc1ccc2c(c1)C1CCNCC1O2 (centres unmarked) [Example 831] |
| > 1000 | CN(C)C(=O)c1c(F)cccc1S(=O)(=O)c1ccc2c(c1)OC1CNCCC21 (centres unmarked) [Example 476] |
| < 500 | Cc1cccc(S(=O)(=O)c2ccc3oc4c(c3c2)CCNC4)n1 [Example 350] |
| > 1000 | O=S(=O)(Cc1ccc(F)cc1F)Oc1ccc2c(c1)C1CCNCC1O2 (centres unmarked) [Example 756] |
| < 500 | O=S(=O)(c1cccc(Br)c1)c1ccc2c(c1)OC1CNCCC21 (centres unmarked) [Example 133] |
| < 500 | O=S(=O)(Nc1ccc2c(c1)C1CCNCC1O2)c1ccc2ccccc2c1 (centres unmarked) [Example 819] |
| < 500 | CC(C)Oc1cccc(S(=O)(=O)c2ccc3c4c(oc3c2)C2(CCOC2)NCC4)c1 (single isomer, unassigned) [Example 32, 7-{[3-(propan-2-yloxy)phenyl]sulfonyl}-3,4,4′,5′-tetrahydro-2H-spiro[1-benzofuro[2,3-c]pyridine-1,3′-furan]] |
| < 500 | O=S(=O)(c1cccc(OC(F)(F)F)c1)c1ccc2c(c1)OC1CNCCC21 (centres unmarked) [Example 149, 7-{[3-(trifluoromethoxy)phenyl]sulfo-nyl}-1,2,3,4,4a,9a-hexahydro[1]benzofuro[2,3-c]pyridine] |
| > 1000 | [O-][S+](c1ccc2oc3c(c2c1)CCNC3)c1cccnc1F (centres unmarked) [Example 444] |
| < 500 | O=S(=O)(c1cccc(Cl)c1)c1ccc2c3c(oc2c1)CN(Cc1ccccc1)CC3 [Example 603] |
| < 500 | CC1(C)NCCc2c1oc1cc(S(=O)(=O)c3cc(F)cc(F)c3)ccc21 [Example 293] |
| < 500 | COc1cccc(S(=O)(=O)c2cccc3c2OC2CNCCC32)c1 (centres unmarked) [Example 182] |

| Ki [nM] | Molecule |
| --- | --- |
| > 1000 | CC(=O)Nc1ccc(S(=O)(=O)Oc2ccc3c(c2)C2CCNCC2O3)cc1 (centres unmarked) [Example 728] |
| < 500 | O=S(=O)(c1cccc(C(F)(F)F)c1)c1ccc2c3c(oc2c1)C1(CCOCC1)NCC3 [Example 298] |
| > 1000 | O=S(=O)(c1cccc(F)c1)c1ccc2oc3c(c2c1)CCN1CCCCC31 (centres unmarked) [Example 618] |
| < 500 | COc1cc(OC(C)C)cc(S(=O)(=O)c2ccc3c(c2)OC2CNCCC32)c1 (centres unmarked) [Example 78] |
| < 500 | O=S(=O)(c1ccc(Cl)cc1)c1ccc2c3c(oc2c1)CNCC3 [Example 203] |
| 500 to 1000 | O=S(=O)(Oc1ccc2c(c1)C1CCNCC1O2)c1cccc2cccnc12 (centres unmarked) [Example 722] |
| 500 to 1000 | Cc1ccc(S(=O)(=O)Oc2ccc3c(c2)OC2CNCCC32)cc1F (centres unmarked) [Example 652] |
| < 500 | O=S(=O)(c1cccc(F)c1)c1ccc2c3c(oc2c1)C1(CCOCC1)NCC3 [Example 43, 7-[(3-fluorophenyl)sulfonyl]-2′,3,3′,4,5′,6′-hexahydro-2H-spiro[1-benzofuro[2,3-c]pyridine-1,4′-pyran]] |
| < 500 | O=S(=O)(c1cccc(F)c1)c1ccc2c3c(oc2c1)C1CCCCN1CC3 (centres unmarked) [Example 617] |
| > 1000 | O=S(=O)(Nc1ccc(Cl)c(Cl)c1)c1ccc2c(c1)C1CCNCC1O2 (centres unmarked) [Example 852] |
| < 500 | O=S(=O)(c1cncc(C(F)(F)F)c1)c1ccc2c(c1)OC1CNCCC21 (centres unmarked) [Example 464] |
| < 500 | COC(=O)CCCCOc1cccc(S(=O)(=O)c2ccc3c(c2)OC2CNCCC32)c1 (centres unmarked) [Example 556] |
| > 1000 | COc1cc(S(=O)(=O)c2ccc3c4c(oc3c2)C(C)(C)NCC4)c[n+]([O-])c1 [Example 369] |
| < 500 | O=S(=O)(c1cccc(Cl)c1)c1ccc2c3c(oc2c1)CNCC3 [Example 340, 7-[(3-chlorophenyl)sulfonyl]-1,2,3,4-tetrahydro[1]benzofuro[2,3-c]pyridine] |
| < 500 | COc1cccc(S(=O)(=O)c2ccc3c(c2)OC2CNCCC32)c1F (centres unmarked) [Example 416] |
| > 1000 | O=C(COc1cccc(S(=O)(=O)c2ccc3c(c2)OC2CNCCC32)c1)N1CCCC1 (centres unmarked) [Example 564] |

Same assay, conditions: membranes of CHO-K1 cells with recombinant human 5-HT6, 4 nM [3H]LSD; specific data; read-out: h5-HT6 (Ki)

| Molecule | Ki [nM] |
| --- | --- |
| 1,2,3,4,4a,9a-hexahydro[1]benzofuro[2,3-c]pyridin-7-yl naphthalene-2-sulfonate [Example 660] | 11.4 |
| Cc1cccc(S(=O)(=O)c2ccc3c4c(oc3c2)CNCC4)n1 [Example 343, 7-[(6-methylpyridin-2-yl)sulfonyl]-1,2,3,4-tetrahydro[1]benzofuro[2,3-c]pyridine] | 6.6 |
